Experimental data taken from ChEMBL document CHEMBL1134789, “Design, synthesis, and modeling of novel cyclic thrombin receptor-derived peptide analogues of the Ser42-Phe-Leu-Leu-Arg46 motif sequence with fixed conformations of pharmacophoric groups: importance of a Phe/Arg/NH2 cluster for receptor activation and implications in the design of nonpeptide …” (2001).

Organism: Rattus norvegicus
Experiment: Ratio concentration and the concentration of SFLLR-NH2 necessary for producing an equal relaxing effect on the isolated rat aortic rings
Format: functional, Aorta

**Q.** N=C(N)NCCCCCC(=O)N1CCC(C(=O)NCc2ccc(F)cc2)CC1 was tested. Which Relative potency did it give?
**A.** 37.3

**Q.** Which Relative potency does the source give for N=C(N)NCCCCCC(=O)NCCCCNC(=O)Cc1ccc(F)cc1 here?
**A.** 50.6

**Q.** N=C(N)NCCCCCC(=O)NCCCCNC(=O)Cc1ccccc1 was tested. Which Relative potency did it give?
**A.** 68

**Q.** Which Relative potency does the source give for CC(C)C[C@H](NC(=O)[C@H](CC(C)C)NC(=O)[C@H](Cc1ccccc1)NC(=O)[C@@H](N)CO)C(=O)N[C@@H](CCCN=C(N)N)C(N)=O here?
**A.** 1

**Q.** How did the Relative potency turn out when CC(C)C[C@@H]1NC(=O)[C@H](CC(C)C)NC(=O)[C@H](Cc2ccccc2)NC(=O)[C@@H](N)CNC(=O)[C@@H](N)CCCCNC(=O)[C@H](CCCN=C(N)N)NC1=O was run?
**A.** 3.3

**Q.** Which Relative potency does the source give for CC(C)C[C@@H]1NC(=O)[C@H](CC(C)C)NC(=O)[C@@H](Cc2ccccc2)NC(=O)[C@@H](N)CNC(=O)[C@@H](N)CCCCNC(=O)[C@H](CCCNC(=N)N)NC1=O here?
**A.** >500

**Q.** With NC(N)=NCCCCCC(=O)N1CCN(C(=O)C(N)Cc2ccccc2)CC1 (configuration not stated) as the compound, how does the Relative potency read?
**A.** 32.8
